How the values were obtained:
ovarian cancer organoid = test: Sensitivity test of ovarian cancer organoid to PARP inhibitor (cell viability by ATP activity); format: cell-based, human; details: exposed for 3 days at 0.0001 to 10 μM; each cell line; FIG. 7
Method: A sensitivity test of the ovarian cancer organoid to olaparib was performed. Olaparib which is a kind of PARP inhibitor was prepared at a final concentration of each of 0.0001 μM, 0.001 μM, 0.01 μM, 0.1 μM, 1 μM, and 10 μM, and the ovarian cancer organoid was exposed to olaparib for 3 days at each concentration, and the cell viability was measured by measuring the ATP activity.
The vertical axis indicates the cell viability as a ratio to the control, and the horizontal axis indicates the final concentration (μM) of olaparib.

[1] = system: ovarian clear cell carcinoma organoid; test: Sensitivity test of ovarian clear cell carcinoma organoid (cell viability by ATP activity); format: cell-based, human; details: exposed for 3 days at 0.0001 to 10 μM, FIGS. 13, 14, 17
Method: Based on the above-described results of HTDS, the test focused on the proteasome inhibitors that were found with multiple hits among the 9 hit compounds. A proteasome inhibitor (bortezomib, carfilzomib, and ixazomib), a microtubule inhibitor (paclitaxel), and a platinum formulation (cisplatin and carboplatin) were prepared at each of final concentrations of 0.0001 μM, 0.001 µM, 0.01 μM, 0.1 μM, 1 μM, and 10 μM, the ovarian clear cell carcinoma organoid was exposed to each of the concentrations for 3 days, and the cell viability was measured by measuring the ATP activity.
FIGS. 13 and 14 show graphic views of the results of the measured cell viabilities.
For the CDK 1, 2, 5, and 9 inhibitor (dinaciclib) that was hit in the 9 compounds that were hit more in HTDS, the cell viability was measured by measuring an ATP activity in the same manner as in Experimental Example 8.

[2] = system: ovarian clear cell carcinoma organoid CCC19-042; test: Drug sensitivity test for immunodeficient mouse transplanted with ovarian clear cell carcinoma organoid; format: in vivo; details: 1 mg/kg intraperitoneally twice a week from the 7th day after transplantation, versus DMSO vehicle; FIG. 15C
Method: The ovarian clear cell carcinoma organoid CCC19-042 was cultured until it reached a diameter of approximately 50 to 100 μm. The organoid was recovered in a 50 mL tube after removing the culture medium from the plate and then suspending the organoid in a Cell Recovery Solution (Corning, 354235). The solution including the recovered organoid was placed on ice and the Matrigel was depolymerized. After the completion of the reaction, the organoid was washed with a culture medium and re-suspended in the Matrigel so that 1×10^6 cells were present in 100 μL.
The organoid corresponding to 1×10^6 cells was transplanted subcutaneously (left shoulder) in an immunodeficient mouse, and the tumor forming ability was evaluated on the 7th day after the transplantation. In addition, a thinly sliced slide was created from an FFPE section of the tumor and subjected to HE staining and HNF1β immunostaining.
With regard to the immunodeficient mouse transplanted with the ovarian clear cell carcinoma organoid shown in Experimental Example 9, administration, measurement of a weekly body weight, and calculation of a tumor volume were performed from the 7th day after transplantation. […]
The tumor volume was calculated by the following expression.

O=C(c1cc(Cc2n[nH]c(=O)c3ccccc23)ccc1F)N1CCN(C(=O)C2CC2)CC1 [olaparib]
cell viability (ratio to the control) (ovarian cancer organoid): reduced depending on the concentration

CC(C)C[C@H](NC(=O)CNC(=O)c1cc(Cl)ccc1Cl)B(O)O [ixazomib]
cell viability [1]: significant decrease in cell viability depending on the concentration

CC(=O)O[C@H]1C(=O)[C@@]2(C)[C@H]([C@H](OC(=O)c3ccccc3)[C@]3(O)C[C@H](OC(=O)[C@H](O)[C@@H](NC(=O)c4ccccc4)c4ccccc4)C(C)=C1C3(C)C)[C@]1(OC(C)=O)CO[C@@H]1C[C@@H]2O [paclitaxel]
cell viability [1]: significant decrease in cell viability depending on the concentration

CC(C)C[C@H](NC(=O)[C@H](Cc1ccccc1)NC(=O)c1cnccn1)B(O)O [bortezomib]
cell viability [1]: significant decrease in cell viability depending on the concentration | tumor volume [2]: decrease in tumor volume

CC(C)C[C@H](NC(=O)[C@H](CCc1ccccc1)NC(=O)CN1CCOCC1)C(=O)N[C@@H](Cc1ccccc1)C(=O)N[C@@H](CC(C)C)C(=O)[C@@]1(C)CO1 [carfilzomib]
cell viability [1]: significant decrease in cell viability depending on the concentration
